Source: US7932279B2 (ArQule, Inc., priority 2007, dated 2011)

Assays:
HSP90α = biological target: T1, HSP90α (Homo sapiens, UniProt P07900); experiment: HSP90 binding assay (fluorescent ELISA, competition with biotinylated Geldanamycin); conditions: reported as range of IC50's
T1 construct: purchased Stressgen Lot B506492
Protocol: The biochemical assay is described as follows.
Purified HSP90α […] was purchased from Stressgen Lot B506492. Single use aliquots of the 1.15 mg/ml stock were prepared and stored at −80° C. to avoid multiple freeze-thaw cycles.
A Nunc Maxisorb plate was coated overnight at 4° C. with 200 ng of HSP90/well dissolved in DPBS. The following day the plates were washed with TBST and blocked for 2 h at room temperature with blocking buffer (20 mM HEPES pH 7.3, 1 mM EDTA, 5 mM MgCl2, 100 mM KCl, 5% BSA). Blocking buffer was removed by washing plates with TBST, and test compounds dissolved in assay buffer (20 mM HEPES pH 7.3, 1 mM EDTA, 5 mM MgCl2, 100 mM KCl, 1% BSA) were added to plate. […] The reaction is incubated for 60 minutes at room temperature. […] Competitive inhibitory compounds will block this interaction from occurring.
The reactions were stopped by washing the plate with TBST. The binding of the bio-GM is detected by the addition of an Alkaline Phosphatase tagged Streptavidin molecule. A TBST wash eliminates any unbound detection agent, and the Alkaline Phosphate substrate Attophos is introduced. This substrate generates a fluorescent signal at […] when excited at […]. These plates can be monitored on either a Victor 5 or Perkin Elmer Envision multilabel reader.

SK-BR-3 = experiment: MTS assay (cell viability); format: cell-based; conditions: Homo sapiens; SK-BR-3 cells, 72 hours with compound, 50% reduction in number of viable cells; read-out: IC50'S(SK-BR-3)
Protocol: The anti-proliferative effects of biochemically active compounds were measured utilizing the MTS assay. The generalized procedure is describes as follows:
The cells are then trypsinized and re-plated in 96 well sterile cell culture plates in 130 μl/well growth media at a density that allows confluency of approximately 50% after 72 hours of growth. These starting densities vary across cell lines based on individual doubling times. The day following plating, the cell was treated with an appropriate concentration of compound diluted in DMSO. Cell plates were allowed to grow undisturbed at 37° C., 5% CO2 for 72 h. After 72 hours, 30 μl of a solution of 0.046 mg/ml Phemazine methosulfate (PMS) (Fluka product 68600) and 1.9 mg/ml MTS reagent ([3-(4,5-dimethylthiazol-2-yl)-5-(3 carboxymethoxyphenyl)-2-(4-sulfophenyl)-2H-tetrazolium, inner salt (Promega product G1111) is added directly to the well. Plate is re-incubated at 37° C., 5% CO2 for 4 hr. Plates were then read on the Perkin Elmer Envision to determine absorbance at 490 nm.
Cell viability was determined by measuring the activity of dehydrogenase enzymes in metabolically active cells using a tetrazolium compound, MTS. The assay was performed as described in Promega Technical Bulletin No. 169 (CellTiter 96 Aqueous Non-Radioactive Cell Proliferation Assay). Ten human cancer cell lines were assayed (see, e.g. Table 1). Cells were maintained at 37° C. and 5% CO2 in DMEM media (4.5 g/L glucose) supplemented with 10% heat-inactivated FBS, 10 mM L-glutamine, and 10 mM Hepes pH 7.5. Briefly, cells were seeded in 96-well plates as set forth in Table 1 and incubated for 16-24 hours. Candidate compounds were serially diluted in DMSO, further diluted in cell culture media, and then added to cells (final DMSO concentration of 0.33%). Cells were incubated in the presence of candidate compound for 72 hours. MTS stock solution (MTS 2 gm/L, PMS […] in PBS) was added to the cells (final concentration MTS […] and PMS 7.67 mg/L) and incubated for 4 hours. SDS was added to a final concentration of 1.4% and absorbance at 490 nm was measured within two hours using a plate reader. The IC50 was defined as the concentration of compound that results in a 50% reduction in the number of viable cells as compared to control wells treated with DMSO only (0.33%) and was calculated using non-linear regression analysis. IC50 values were given in Table 3 for the compounds listed.

[1] = aqueous solution; cited from earlier work
[2] = clinical trials; cited from earlier work

`COCCCn1nnnc1-c1cc(-c2cccc(C(F)(F)F)c2)c(O)cc1O` [Compound 7, 5-[1-(3-methoxy-propyl)-1H-tetrazol-5-yl]-3′-trifluoromethyl-biphenyl-2,4-diol] gave an IC50 (HSP90α) of 10 to 50 µM, an IC50 (SK-BR-3) of 15.3 µM and a melting point of 144 to 182 °C.
Work on `COCCCn1nnnc1-c1cc(-c2cc(C(C)C)ccc2OC)c(O)cc1O` [Compound 16, 5′-isopropyl-2′-methoxy-5-[1-(3-methoxy-propyl)-1H-tetrazol-5-yl]-biphenyl-2,4-diol] yielded an IC50 (HSP90α) of 1 to 10 µM and a melting point of 174 to 176 °C.
In the case of `C=CCNC1=C2C[C@@H](C)C[C@H](OC)[C@H](O)[C@@H](C)/C=C(\C)[C@H](OC(N)=O)[C@@H](OC)/C=C\C=C(/C)C(=O)NC(=CC1=O)C2=O` [Compound 17-AAG, 17-Allylamino-17-demethoxygeldanamycin], the solubility [1] is listed as “low solubility”.
`COc1ccc(C(C)C)cc1-c1cc(-c2nnnn2CCc2ccccc2)c(O)cc1O` [Compound 26, 5′-isopropyl-2′-methoxy-5-(1-phenethyl-1H-tetrazol-5-yl)-biphenyl-2,4-diol] showed an IC50 (HSP90α) of 10 to 50 µM and a melting point of 206 to 209 °C.
In the case of `CCc1ccccc1-c1cc(-c2nnnn2CCCOC)c(O)cc1O` [Compound 75, 2′-Ethyl-5-[1-(3-methoxy-propyl)-1H-tetrazol-5-yl]-biphenyl-2,4-diol], the IC50 (HSP90α) is reported as over 50 µM.
Compound `COCCCn1nnnc1-c1cc(-c2cccc(C(C)C)c2)c(O)cc1O` [Compound 76, 3′-Isopropyl-5-[1-(3-methoxy-propyl)-1H-tetrazol-5-yl]-biphenyl-2,4-diol] has an IC50 (HSP90α) of 10 to 50 µM.
Work on `CCOc1cccc(-c2cc(-c3nnnn3CCCOC)c(O)cc2O)c1` [Compound 77, 3′-Ethoxy-5-[1-(3-methoxy-propyl)-1H-tetrazol-5-yl]-biphenyl-2,4-diol] yielded an IC50 (HSP90α) of 10 to 50 µM.
With `COCCCn1nnnc1-c1cc(-c2ccc(F)cc2F)c(O)cc1O` [Compound 84] the IC50 (HSP90α) was over 50 µM.
With `COc1ccc(C(C)C)cc1-c1cc(-c2nnnn2CCCOC(C)C)c(O)cc1O` [Compound 99, 5-[1-(3-Isopropoxy-propyl)-1H-tetrazol-5-yl]-5′-isopropyl-2′-methoxy-biphenyl-2,4-diol] the IC50 (SK-BR-3) was 13.5 µM.
Work on `COc1ccc(C(C)C)cc1-c1cc(-c2nnnn2CCCc2ccccc2)c(O)cc1O` [Compound 100] yielded an IC50 (SK-BR-3) of 3.22 µM.
`COc1ccc(C(C)C)cc1-c1cc(-c2nnnn2C2CCC2)c(O)cc1O` [Compound 108, 5-(1-Cyclobutyl-1H-tetrazol-5-yl)-5′-isopropyl-2′-methoxy-biphenyl-2,4-diol] gave an IC50 (SK-BR-3) of 13.7 µM.
With `COc1ccc(C(C)C)cc1-c1cc(-c2nnnn2C(C)C)c(O)cc1O` [Compound 110] the IC50 (SK-BR-3) was 1.58 µM.
For `COc1ccc(C(C)C)cc1-c1cc(-c2nnnn2-c2ccccc2)c(O)cc1O` [Compound 120], the IC50 (HSP90α) was under 1 µM.
In the case of `CO[C@H]1/C=C\C=C(/C)C(=O)NC2=CC(=O)C(NCCN(C)C)=C(C[C@@H](C)C[C@H](OC)[C@H](O)[C@@H](C)/C=C(\C)[C@@H]1OC(N)=O)C2=O` [DMAG, 17-Dimethylaminoethylamino-17-demethoxygeldanamycin], the solubility [1] is listed as “low solubility”.
For `COC1=C2C[C@@H](C)C[C@H](OC)[C@H](O)[C@@H](C)/C=C(\C)[C@H](OC(N)=O)[C@@H](OC)/C=C\C=C(/C)C(=O)NC(=CC1=O)C2=O` [geldanamycin], the solubility [1] is given as “poorly soluble” and the hepatotoxicity [2] is given as “hepatotoxicity proved problematic”.
